# Test results from publication PMC6151865, “Targeting protein biotinylation enhances tuberculosis chemotherapy” (Science Translational Medicine, 2018).
# Entries after “also recorded” stand apart in the source; their conditions may differ.
# Experiments:
# [1] = test system: Mtb mutant bioA TetON-1 strain; format: cell-based, Mycobacterium tuberculosis
# [2] = test system: Mtb carrying an Rv3406 overexpression plasmid (pGMEH-Ptb38-rv3406); format: cell-based, Mycobacterium tuberculosis
Structure (SMILES),sensitivity of bioA TetON-1 compared to wild-type Mtb [1],resistance relative to wild-type Mtb [2]
CO[C@H]1/C=C/O[C@@]2(C)Oc3c(C)c(O)c4c(O)c(c(/C=N/N5CCN(C)CC5)c(O)c4c3C2=O)NC(=O)/C(C)=C\C=C\[C@H](C)[C@H](O)[C@@H](C)[C@@H](O)[C@@H](C)[C@H](OC(C)=O)[C@@H]1C [rifampicin],more sensitive than wild-type Mtb; also recorded: more resistant than wild-type Mtb,–
"Nc1ncnc2c1ncn2[C@@H]1O[C@H](CNS(=O)(=O)NC(=O)CCCC[C@@H]2SC[C@@H]3NC(=O)N[C@@H]32)[C@@H](O)[C@H]1O [Bio-AMS, 5′-[N-(d-biotinoyl)sulfamoyl]amino-5′-deoxyadenosine]",–,64 fold
